Data as given in patent publication US11192863B2, “Antiviral compounds and methods” (Biotron Limited, priority 2003, dated 2021).
Where two headings read alike, the source gives them in different places.

What was measured:
MHV (strain MHV-A59) = settings: L929 cells
229E-CoV E-protein = 229E-CoV E-protein (Human coronavirus 229E, UniProt P19741); assay: Bacterial bio-assay for 229E-CoV E-protein; settings: halo of growth score; E. coli expressing E protein at 37° C.
Vpu protein = Vpu protein (Human immunodeficiency virus type 1 group M subtype B, UniProt P05919); settings: halo of growth score between zero and six; XL1-blue E. coli with pPL-Vpu, no adenine, 37° C.
SARS-CoV E protein = SARS-CoV E protein (Severe acute respiratory syndrome coronavirus, UniProt P59637); assay type: cell-based

Compound: NC(N)=NC(=O)c1nc(Cl)c(Nc2ccc(F)cc2)nc1N [5-(4-fluorophenyl)amiloride]
- Percent reduction in Plaque number/# experiments (MHV (strain MHV-A59); 1 uM): 16/1%
- Percent reduction in Plaque number/# experiments (MHV (strain MHV-A59); 10 uM): 25/1%
- Percent reduction in Plaque number/# experiments (MHV (strain MHV-A59); 20 uM): 4/1%
- 229E E protein Inhibition (score) (229E-CoV E-protein): 1.8 score
- Vpu Inhibition (score/# of times tested) (Vpu protein): 0.4/6 score
- SARS E protein Inhibition (score/# of times tested) (SARS-CoV E protein): 1.38/1 score

Compound: N=C(N)NC(=O)/C=C/c1ccccc1C(F)(F)F [2-(trifluoromethyl)cinnamoylguanidine]
- Percent reduction in Plaque number/# experiments (MHV (strain MHV-A59); 1 uM): 13/1%
- Percent reduction in Plaque number/# experiments (MHV (strain MHV-A59); 10 uM): 15/1%
- Percent reduction in Plaque number/# experiments (MHV (strain MHV-A59); 20 uM): 19/1%
- 229E E protein Inhibition (score) (229E-CoV E-protein): 1.5 score
- Vpu Inhibition (score/# of times tested) (Vpu protein): 2.4/2 score
- SARS E protein Inhibition (score/# of times tested) (SARS-CoV E protein): 1.38/1 score

Compound: N=C(N)NC(=O)/C=C/c1cc(Br)ccc1F [5-bromo-2-fluorocinnamoylguanidine]
- Percent reduction in Plaque number/# experiments (MHV (strain MHV-A59); 1 uM): 31/1%
- Percent reduction in Plaque number/# experiments (MHV (strain MHV-A59); 10 uM): 81/2%
- Toxic (noted in place of plaque reduction) (MHV (strain MHV-A59); 20 uM): Toxic
- 229E E protein Inhibition (score) (229E-CoV E-protein): 1.4 score
- Vpu Inhibition (score/# of times tested) (Vpu protein): 3.5/2 score
- SARS E protein Inhibition (score/# of times tested) (SARS-CoV E protein): 2.00/1 score

Compound: COc1cccc(/C=C/C(=O)NC(=N)N)c1 [(3-Methoxycinnamoyl)guanidine]
- Percent reduction in Plaque number/# experiments (MHV (strain MHV-A59); 1 uM): 37/3%
- Percent reduction in Plaque number/# experiments (MHV (strain MHV-A59); 10 uM): 87/2%
- Percent reduction in Plaque number/# experiments (MHV (strain MHV-A59); 20 uM): 92/2%
- 229E E protein Inhibition (score) (229E-CoV E-protein): 1.4 score
- Vpu Inhibition (score/# of times tested) (Vpu protein): 1.52/6 score
- SARS E protein Inhibition (score/# of times tested) (SARS-CoV E protein): 0.63/2 score

Compound: Cc1ccccc1/C=C/C(=O)NC(=N)N [2-methylcinnamoylguanidine]
- Percent reduction in Plaque number/# experiments (MHV (strain MHV-A59); 1 uM): 20/1%
- Percent reduction in Plaque number/# experiments (MHV (strain MHV-A59); 10 uM): 82/1%
- Percent reduction in Plaque number/# experiments (MHV (strain MHV-A59); 20 uM): 91/1%
- 229E E protein Inhibition (score) (229E-CoV E-protein): 0.5 score
- Vpu Inhibition (score/# of times tested) (Vpu protein): 3.1/2 score
- SARS E protein Inhibition (score/# of times tested) (SARS-CoV E protein): 1.00/1 score

Compound: N=C(N)NC(=O)/C=C/c1ccc(O)cc1 [(4-Hydroxycinnamoyl)guanidine]
- Percent reduction in Plaque number/# experiments (MHV (strain MHV-A59); 1 uM): 13/1%
- Percent reduction in Plaque number/# experiments (MHV (strain MHV-A59); 10 uM): 15/1%
- Percent reduction in Plaque number/# experiments (MHV (strain MHV-A59); 20 uM): 19/1%
- 229E E protein Inhibition (score) (229E-CoV E-protein): 0.6 score
- Vpu Inhibition (score/# of times tested) (Vpu protein): 1.1/2 score
- SARS E protein Inhibition (score/# of times tested) (SARS-CoV E protein): 1.63/2 score

Compound: N=C(N)NC(=O)/C=C/c1ccc(-c2ccccc2)cc1 [4-phenylcinnamoylguanidine]
- Percent reduction in Plaque number/# experiments (MHV (strain MHV-A59); 1 uM): 21/3%
- Percent reduction in Plaque number/# experiments (MHV (strain MHV-A59); 10 uM): 36/1%
- Percent reduction in Plaque number/# experiments (MHV (strain MHV-A59); 20 uM): 53/1%
- 229E E protein Inhibition (score) (229E-CoV E-protein): 1.0 score
- Vpu Inhibition (score/# of times tested) (Vpu protein): 1.1/2 score
- SARS E protein Inhibition (score/# of times tested) (SARS-CoV E protein): 2.75/2 score

Compound: N=C(N)NC(=O)/C=C/c1ccc2ccccc2c1 [3-(2-napthyl)acryloylguanidine]
- Percent reduction in Plaque number/# experiments (MHV (strain MHV-A59); 1 uM): 40/1%
- Percent reduction in Plaque number/# experiments (MHV (strain MHV-A59); 10 uM): 93/1%
- Percent reduction in Plaque number/# experiments (MHV (strain MHV-A59); 20 uM): 93/1%
- 229E E protein Inhibition (score) (229E-CoV E-protein): 3.0 score
- Vpu Inhibition (score/# of times tested) (Vpu protein): 1.56/2 score
- SARS E protein Inhibition (score/# of times tested) (SARS-CoV E protein): 3.88/1 score

Compound: NC(N)=NC(=O)c1cccc2ccccc12 [1-napthoylguanidine]
- Percent reduction in Plaque number/# experiments (MHV (strain MHV-A59); 1 uM): 2/3%
- Percent reduction in Plaque number/# experiments (MHV (strain MHV-A59); 10 uM): 62/3%
- Percent reduction in Plaque number/# experiments (MHV (strain MHV-A59); 20 uM): 71/3%
- 229E E protein Inhibition (score) (229E-CoV E-protein): 1.9 score
- Vpu Inhibition (score/# of times tested) (Vpu protein): 0.3/2 score
- SARS E protein Inhibition (score/# of times tested) (SARS-CoV E protein): 1.32/3 score

Compound: N=C(N)NC(=O)/C=C/c1cccc([N+](=O)[O-])c1 [(3-Nitrocinnamoyl)guanidine]
- Percent reduction in Plaque number/# experiments (MHV (strain MHV-A59); 1 uM): 42/3%
- Percent reduction in Plaque number/# experiments (MHV (strain MHV-A59); 10 uM): 77/3%
- Percent reduction in Plaque number/# experiments (MHV (strain MHV-A59); 20 uM): 95/2%
- 229E E protein Inhibition (score) (229E-CoV E-protein): 0.1 score
- Vpu Inhibition (score/# of times tested) (Vpu protein): 0.9/1 score
- SARS E protein Inhibition (score/# of times tested) (SARS-CoV E protein): 1.51/2 score

Compound: N=C(N)NC(=O)/C=C/c1ccccc1F [2-fluorocinnamoylguanidine]
- Percent reduction in Plaque number/# experiments (MHV (strain MHV-A59); 10 uM): 73/1%
- Percent reduction in Plaque number/# experiments (MHV (strain MHV-A59); 20 uM): 76/1%
- 229E E protein Inhibition (score) (229E-CoV E-protein): 0.4 score
- Vpu Inhibition (score/# of times tested) (Vpu protein): 2.1/2 score
- SARS E protein Inhibition (score/# of times tested) (SARS-CoV E protein): 0.63/1 score

Compound: N=C(N)NC(=O)/C=C/c1cccc(F)c1 [3-fluorocinnamoylguanidine]
- Percent reduction in Plaque number/# experiments (MHV (strain MHV-A59); 1 uM): 31/1%
- Percent reduction in Plaque number/# experiments (MHV (strain MHV-A59); 10 uM): 93/2%
- Percent reduction in Plaque number/# experiments (MHV (strain MHV-A59); 20 uM): 100/1%
- 229E E protein Inhibition (score) (229E-CoV E-protein): 0.5 score
- Vpu Inhibition (score/# of times tested) (Vpu protein): 1.9/2 score
- SARS E protein Inhibition (score/# of times tested) (SARS-CoV E protein): 1.50/1 score

Compound: N=C(N)NC(=O)/C=C/c1ccc(F)cc1 [4-fluorocinnamoylguanidine]
- Percent reduction in Plaque number/# experiments (MHV (strain MHV-A59); 1 uM): 20/1%
- Percent reduction in Plaque number/# experiments (MHV (strain MHV-A59); 10 uM): 83/1%
- Percent reduction in Plaque number/# experiments (MHV (strain MHV-A59); 20 uM): 86/1%
- 229E E protein Inhibition (score) (229E-CoV E-protein): 0.4 score
- Vpu Inhibition (score/# of times tested) (Vpu protein): 1.1/2 score
- SARS E protein Inhibition (score/# of times tested) (SARS-CoV E protein): 1.25/1 score

Compound: COc1ccccc1/C=C/C(=O)NC(=N)N [(2-Methoxycinnamoyl)guanidine]
- Percent reduction in Plaque number/# experiments (MHV (strain MHV-A59); 1 uM): 23/2%
- Percent reduction in Plaque number/# experiments (MHV (strain MHV-A59); 10 uM): 85/2%
- Percent reduction in Plaque number/# experiments (MHV (strain MHV-A59); 20 uM): 90/2%
- 229E E protein Inhibition (score) (229E-CoV E-protein): 1.1 score
- Vpu Inhibition (score/# of times tested) (Vpu protein): 1.7/4 score
- SARS E protein Inhibition (score/# of times tested) (SARS-CoV E protein): 0.69/2 score

Compound: N=C(N)NC(=O)/C=C/c1ccc(C(F)(F)F)cc1 [4-(trifluoromethyl)cinnamoylguanidine]
- Percent reduction in Plaque number/# experiments (MHV (strain MHV-A59); 1 uM): 46/3%
- Percent reduction in Plaque number/# experiments (MHV (strain MHV-A59); 10 uM): 95/3%
- Percent reduction in Plaque number/# experiments (MHV (strain MHV-A59); 20 uM): 97/3%
- 229E E protein Inhibition (score) (229E-CoV E-protein): 2.3 score
- Vpu Inhibition (score/# of times tested) (Vpu protein): 2.2/2 score
- SARS E protein Inhibition (score/# of times tested) (SARS-CoV E protein): 2.75/1 score

Compound: Cc1cc(C)c(C)c(/C=C/C(=O)NC(=N)N)c1C [2,3,5,6,-tetramethylcinnamoylguanidine]
- Percent reduction in Plaque number/# experiments (MHV (strain MHV-A59); 1 uM): 0/1%
- Percent reduction in Plaque number/# experiments (MHV (strain MHV-A59); 10 uM): 68/2%
- 229E E protein Inhibition (score) (229E-CoV E-protein): 0.3 score
- Vpu Inhibition (score/# of times tested) (Vpu protein): 1.6/2 score
- SARS E protein Inhibition (score/# of times tested) (SARS-CoV E protein): 1.00/1 score

Compound: CCOc1ccccc1/C=C/C(=O)NC(=N)N [2-ethoxycinnamoylguanidine]
- Percent reduction in Plaque number/# experiments (MHV (strain MHV-A59); 1 uM): 48/2%
- Percent reduction in Plaque number/# experiments (MHV (strain MHV-A59); 10 uM): 85/3%
- Percent reduction in Plaque number/# experiments (MHV (strain MHV-A59); 20 uM): 93/2%
- 229E E protein Inhibition (score) (229E-CoV E-protein): 0.6 score
- Vpu Inhibition (score/# of times tested) (Vpu protein): 2.25/2 score
- SARS E protein Inhibition (score/# of times tested) (SARS-CoV E protein): 2.57/1 score

Compound: CC(C)(C)c1cccc(/C=C/C(=O)NC(=N)N)c1 [3-t-butylcinnamoylguanidine]
- Percent reduction in Plaque number/# experiments (MHV (strain MHV-A59); 1 uM): 49/2%
- Percent reduction in Plaque number/# experiments (MHV (strain MHV-A59); 10 uM): 94/3%
- Toxic (noted in place of plaque reduction) (MHV (strain MHV-A59); 20 uM): Toxic
- 229E E protein Inhibition (score) (229E-CoV E-protein): 3.9 score
- Vpu Inhibition (score/# of times tested) (Vpu protein): 2.06/2 score
- SARS E protein Inhibition (score/# of times tested) (SARS-CoV E protein): 2.00/1 score

Compound: Cc1ccc(/C=C/C(=O)NC(=N)N)cc1 [4-methylcinnamoylguanidine]
- Percent reduction in Plaque number/# experiments (MHV (strain MHV-A59); 1 uM): 20/1%
- Percent reduction in Plaque number/# experiments (MHV (strain MHV-A59); 10 uM): 89/1%
- Percent reduction in Plaque number/# experiments (MHV (strain MHV-A59); 20 uM): 93/1%
- 229E E protein Inhibition (score) (229E-CoV E-protein): 0.3 score
- Vpu Inhibition (score/# of times tested) (Vpu protein): 2.1/2 score
- SARS E protein Inhibition (score/# of times tested) (SARS-CoV E protein): 1.25/1 score

Compound: Cc1ccc(C)c(/C=C/C(=O)NC(=N)N)c1 [2,5-dimethylcinnamoylguanidine]
- Percent reduction in Plaque number/# experiments (MHV (strain MHV-A59); 1 uM): 39/3%
- Percent reduction in Plaque number/# experiments (MHV (strain MHV-A59); 10 uM): 91/3%
- Percent reduction in Plaque number/# experiments (MHV (strain MHV-A59); 20 uM): 95/3%
- 229E E protein Inhibition (score) (229E-CoV E-protein): 1.6 score
- Vpu Inhibition (score/# of times tested) (Vpu protein): 2.69/2 score
- SARS E protein Inhibition (score/# of times tested) (SARS-CoV E protein): 3.63/1 score

Compound: N=C(N)NC(=O)/C=C/c1cccc(F)c1F [2,3-difluorocinnamoylguanidine]
- Percent reduction in Plaque number/# experiments (MHV (strain MHV-A59); 1 uM): 64/2%
- Percent reduction in Plaque number/# experiments (MHV (strain MHV-A59); 10 uM): 92/3%
- Toxic (noted in place of plaque reduction) (MHV (strain MHV-A59); 20 uM): Toxic
- 229E E protein Inhibition (score) (229E-CoV E-protein): 3.3 score
- Vpu Inhibition (score/# of times tested) (Vpu protein): 1.56/2 score
- SARS E protein Inhibition (score/# of times tested) (SARS-CoV E protein): 4.50/1 score
